Values quoted from earlier work, collected in US20230087473A1, “COMPOSITION OF SUSPOEMULSION FORMULATION OF ANTHELMINTIC DRUGS WITH ESSENTIAL OILS FOR NASO-PULMONARY ADMINISTRATION” (priority 2021, published 2023).

Columns and labels:
Musca Domenstica = conditions: nasal irrigation with ivermectin solution, within 15 minutes
SARS-COV-2 = conditions: in-vitro study
[1] = in vivo

Molecule | larvae self-expulsed by the patient (Musca Domenstica) | effect on replication of SARS-COV-2 (SARS-COV-2) | bioavailability [1]
Ivermectin | approximately 50 larvae | inhibitory role | –
O=C(Nc1ccc([N+](=O)[O-])cc1Cl)c1cc(Cl)ccc1O [Niclosamide] | – | – | very low bioavailability
